# Source: patent US6403625B1, “Fluorescent labeling reagents” (Daiichi Pure Chemicals Co., Ltd., priority 1998, dated 2002)
# Legend:
# [1] = Fluorescence spectrum (excitation/emission); type: physicochemical
# Description: (§1) All the melting points were measured with a Yanagimoto-Micro apparatus and were not corrected. Nuclear magnetic resonance (^1H-NMR) spectrum of a protein was recorded by using a spectrometer, JEOL-FX-200 or JEOL-GSX-400. Chemical shifts were indicated as δ values (ppm) using tetramethylsilane as the internal standard. The fast atom bombardment mass spectrometric analysis (FAB) or the electron ionization mass spectrometric analysis (El) was performed by using a JEOL-SX-102A apparatus. […] The UV-vis spectrum was measured by using a Beckmann's 650-40 spectrometer. The fluorescence spectrum was recorded with a Hitachi's 650-40 luminescence spectrometer. The column chromatography was performed by using Merck's Silica Gel 60 (70-230 mesh). The compound numbers in Examples correspond to those in the aforementioned scheme.
# A DMF solution (250 μl ) of compound (6) of the present invention obtained in Example 1 (3.7 μmol/ml) was added to a 0.1 M phosphate buffer solution (pH 7.5, 1 ml) of BSA (2 mg). The reaction mixture was allowed to stand for 30 minutes and subjected to Sephadex LH-20 column chromatography (1.5 cm×50 cm), and then eluted with a 0.1 M phosphate buffer solution (pH 7.5) to obtain a fraction of ICG-labeled protein. For IgG (2 mg), the labeling reaction with a DMF solution (250 μl) of ICG-ATT (6) (3.7 μmol/ml) was carried out in a similar manner to the above by using 0.1 M carbonate buffer (pH 9.5) instead of 0.1 M phosphate buffer (pH 7.5). The 0.1 M phosphate or the carbonate buffer solution (1 ml), containing the ICG-labeled protein (BSA or IgG) obtained by the Sephadex LH-20 column chromatography, was added to ethyl acetate (1 ml), and the mixture was vigorously stirred for 30 minutes to remove fluorescent compounds which bound to the protein through noncovalent bond. Then, the aqueous layer containing the labeled protein and the ethyl acetate layer were subjected to UV-vis and fluorescence analyses.
# As a result, the ratios of the fluorescent substance in the aqueous layer and the ethyl acetate layer were 44% in BSA and 69% in IgG. The protein concentration in the labeled protein was measured by using a protein assay kit (Bio-Rad, CA), and the total ICG concentration in the labeled protein was determined from the absorbance (789 nm) of the DMF solution and the ε value of the ICD derivative. The ratios of ICG versus protein (ICG/protein) in each ICG-labeled protein were 21.5 (BSA) and 23.6 (IgG). […] From the foregoing results, it is readily understood that the compounds of the present invention are useful as near infrared fluorescent labeling agents for proteins and oligopeptides.
# [2] = UV-vis absorption spectrum; type: physicochemical; details: Table 2
# Description: as §1, with “The column chromatography was performed by using Merck's Silica Gel 60 (70-230 mesh). The compound numbers in Examples correspond to those in the aforementioned scheme.” left out
# A DMF solution (250 μl ) of compound (6) of the present invention obtained in Example 1 (3.7 μmol/ml) was added to a 0.1 M phosphate buffer solution (pH 7.5, 1 ml) of BSA (2 mg). […] Then, the aqueous layer containing the labeled protein and the ethyl acetate layer were subjected to UV-vis and fluorescence analyses.
# As a result, the ratios of the fluorescent substance in the aqueous layer and the ethyl acetate layer were 44% in BSA and 69% in IgG. The protein concentration in the labeled protein was measured by using a protein assay kit (Bio-Rad, CA), and the total ICG concentration in the labeled protein was determined from the absorbance (789 nm) of the DMF solution and the ε value of the ICD derivative. […]
smiles,measurement,setting,value
"CCN1C(=CC=CC=CC=CC2=[N+](CCCCCC(=O)N3CCSC3=S)c3ccc4ccccc4c3C2(C)C)C(C)(C)c2c1ccc1ccccc21.[Cl-] [ICG-ATT (6), 2-[7-(1,3-Dihydro-1,1-dimethyl-3-ethylbenz[e]indolin-2-ylidene)-1,3,5-heptatrienyl]-1,1-dimethyl-3-[[6-[(1,3-thiazolidine-2-thion)-1-yl]-6-oxo]hexyl]-1H-benz[e]indolium Chloride]",λ em,[1]; DMF,830 nm
same,λ ex,[1]; DMF,765 nm
same,fluorescent λem,[1]; Table 2,830 nm
same,fluorescent λex,[1]; Table 2,765 nm
same,UV-vis abs (λmax),[2],789 nm
